Test results published in patent US20010034319A1, “Photothermal vascular targeting with bioreductive agents” (priority 1999, published 2001).

Legend:
[1] = tested on: KB cells (human pharyngeal SCC); test: POR with PDL extending beyond tumor area, KB tumors in nude mice (Example VI); assay type: in vivo
Protocol: (§1) KB cells (human pharyngeal SCC, American Type Culture Collection, Rockville, Md.) were maintained in culture medium consisting of 90% Minimal Essential medium (Gibco BRL, Grand Island, N.Y.) and 10% fetal bovine serum (Hyclone, Logan, Utah) with the addition of […] nonessential amino acid (Gibco BRL) and antibiotics (penicillin, streptomycin: Gibco BRL). The cells were grown as monolayers in Falcon T150 flasks (Becton Dickinson, Franklin Lakes, N.J.) in a 37° C. humidified incubator with 5% CO2.
(§2) Prior to inoculation, the cells were rinsed with PBS lacking calcium and magnesium (Gibco BRL), trypsinized (Gibco BRL), counted, centrifuged at 1000 rpm for 6 min., and resuspended in normal saline for a final concentration of 1,000,000 cells/ml.
(§3) Six- to seven-week-old nude mice (Charles River Labs, Wilmington, Mass.) were sterilely housed and fed ad libitum. Intradermal inoculation of 0.05 ml of cell suspension (50,000 cells) was performed under general anesthesia (ether) using a 30 gauge hypodermic needle. After 5 days, the majority of the tumors were visually apparent and palpable.
(§4) The effect of treatment on tumor volumes was determined using analysis of variance. Multiple comparisons were performed using the Student-Newman-Keuls (SNK) test. P values less than 0.05 are considered significant.
Twelve mice with 6 tumor inoculations were divided into 3 treatment groups and 1 control group. On day 5 following inoculation, the 4 groups were treated as in Example V except that the field of irradiation was extended to include a 2 to 3 mm periphery beyond the tumor edge. In addition, on the second treatment day, the fluence was raised from 10 to 15 J/cm^2. Tumor volume measurements were performed on days 0, 2, 4, 6, 8, 10, and 12 following the first treatment. Mice were weighed on day 0 and 6 following the first treatment. There were two anesthesia related deaths: one mouse from the control group and one mouse from the group receiving both PDL and POR died before day 10 and were therefore excluded from analysis.

[2] = tested on: KB cells (human pharyngeal SCC); test: Effect of POR alone on KB tumor volume in nude mice (Example IV); assay type: in vivo; conditions: POR alone 2.50, 5.0, 7.5, 10.0 mg/kg ip vs saline control; days 0-13; FIG. 1
Protocol: KB cells (human pharyngeal SCC, American Type Culture Collection, Rockville, Md.) were maintained in culture medium consisting of 90% Minimal Essential medium (Gibco BRL, Grand Island, N.Y.) and 10% fetal bovine serum (Hyclone, Logan, Utah) with the addition of 10 nM nonessential amino acid (Gibco BRL) and antibiotics (penicillin, streptomycin: Gibco BRL). The cells were grown as monolayers in Falcon T150 flasks (Becton Dickinson, Franklin Lakes, N.J.) in a 37° C. humidified incubator with 5% CO2.
The effect of treatment on tumor volumes was determined using analysis of variance. […]
Fifteen mice, each with 4 tumor inoculations, were divided into 4 treatment groups and 1 control group. […] The 3 orthogonal diameters of the tumors were measured at days 0, 2, 4, 6, 8, 10, and 13 following POR injection. […]

[3] = tested on: KB cells (human pharyngeal SCC); test: POR with PDL limited to tumor area, KB tumors in nude mice (Example V); assay type: in vivo; conditions: for effect of treatment on mean tumor volume (analysis of variance): repeated two days later, FIG. 2
Protocol: as §1, §2, §3, §4
Sixteen mice, each with 4 tumor inoculations, were divided into 3 treatment groups and 1 control group. On day 6 following tumor inoculation, the treatment groups received (1) ip POR only (10 mg/kg), (2) ip saline and PDL limited to tumor area (585 nm, 10 J/cm^2, 300-500 μs; Model SPTL-1a, Candela Corporation, Wayland, Mass.), or (3) ip POR (10 mg/kg) and PDL limited to the tumor area (585 nm, 10 J/cm^2, 300-500 μs). The control group received ip saline injections only. PDL irradiation was performed 15 min. after administration of POR or vehicle, using a laser handpiece that produced a 5 mm diameter irradiated spot with a uniform energy distribution on the tumor surface. An aluminum plate with holes of various diameters was used to shield areas beyond the tumor border. […]

[4] = tested on: human squamous cancer cells; test: PDL and POR on human squamous cancer cell tumors in hamster cheek pouch (Example VIII); assay type: in vivo, hamsters; conditions: combined PDL (588 nm) and POR versus PDL only, FIG. 5
Description: In this example, tumors were produced in the cheek pouches of hamsters by transplantation of human squamous cancer cells according to methods well known in the art. Hamsters were divided into four treatment groups: (1) control, (2) bioreductive agent porfiromycin only (POR), (3) 588 nm pulsed dye laser only (PDL), and (4) combined PDL and POR.

hypoxic cells = conditions: compared with mitomycin C; cited from earlier work
normal skin tissue = test: POR with PDL treatment of normal skin tissue, histologic evaluation (Example VII); assay type: in vivo, Syrian golden hamsters; conditions: PDL 15 min. after ip POR; biopsies 10 min. or 2 days after irradiation; hamster flank
Protocol: The effect on normal skin tissue of PDL irradiation with or without POR was determined using 6 adult Syrian golden hamsters. The hamsters were divided into two groups, and hair of each animal was shaved from an area of the flank. One group was irradiated with the PDL 15 min. after ip injection of POR, and the other group was irradiated without POR administration. Biopsies of treated sites were taken 10 min. or 2 days after irradiation. Specimens were fixed with formalin, embedded in paraffin, sectioned, and stained (H&E) for histologic evaluation.

[5] = Body weight / systemic toxicity monitoring of POR in tumor-bearing mice (Example IV); conditions: POR 2.50-10.0 mg/kg ip; mice weighed days 0-13
Protocol: Fifteen mice, each with 4 tumor inoculations, were divided into 4 treatment groups and 1 control group. Five days after tumor inoculation, the 4 treatment groups received 2.50, 5.0, 7.5, and 10.0 mg/kg intraperitoneal (ip) injections of POR (Vion Pharmaceuticals, Inc., New Haven, Conn.) dissolved in sterile water. […] All mice were anesthetized during ip injections and tumor measurements. […] The mice were weighed at the time of each tumor measurement to monitor for any systemic toxicity of POR.

CO[C@@]12[C@H](COC(N)=O)C3=C(C(=O)C(C)=C(N)C3=O)N1C[C@H]1[C@@H]2N1C (stereo partly drawn) [POR, porfiromycin]
tumor volume versus controls (SNK test) ([1]; POR 10 mg/kg ip with PDL including 2 to 3 mm margin (10 then 15 J/cm^2), all tumors, FIG. 3): differed from the controls from day 6 onward
tumor volume versus controls (SNK test) ([1]; POR alone 10 mg/kg ip, all tumors, FIG. 3): differed from the controls from day 6 onward
tumor volume, PDL with POR versus PDL without POR ([1]; all tumors, PDL including tumor margin, FIG. 3): no significance between the effects of PDL irradiation with and without POR at any time
tumor volume, PDL with POR versus PDL without POR (SNK test) ([1]; only the largest 33% of tumors on day 0, PDL including tumor margin, FIG. 4): significant difference between PDL with and without POR at all days after day 6
effect of treatment on mean tumor volume (analysis of variance) [2]: no significant effect of treatment at any point in time
effect of treatment on mean tumor volume (analysis of variance) ([3]; ip POR 10 mg/kg and PDL limited to tumor area (585 nm, 10 J/cm^2)): no significant effect of treatment at any point in time
skin sloughing / epithelial necrosis in laser treatment groups ([3]; ip POR 10 mg/kg and PDL limited to tumor area, gross and histological): no gross evidence of skin sloughing or any histological evidence of epithelial necrosis
effect of treatment on mean tumor volume (analysis of variance) ([3]; ip POR only 10 mg/kg, days 0-13): no significant effect of treatment at any point in time
tumor regression and remission [4]: tumor regression and remission following laser vascular targeting is enhanced
preferential toxicity for hypoxic cells (hypoxic cells): greater for POR than mitomycin C
damage to normal skin after PDL irradiation (histologic and clinical) (normal skin tissue): no microscopic or clinical evidence of epithelial necrosis or other damage to tissue structures beyond the blood vessels
effect of treatment on body weight / acute toxicity [5]: no significant effect of treatment on body weight, or any other indication of acute toxicity
